Source: patent EP4603105A1, “PHARMACEUTICAL COMPOSITION CONTAINING CYCLIC COMPOUND HAVING SELECTIVE KRAS INHIBITORY EFFECT AGAINST HRAS AND NRAS” (CHUGAI SEIYAKU KABUSHIKI KAISHA, priority 2022, dated 2024)
Where two headings read alike, the source gives them in different places. Where a SMILES comes first, the peptide text is derived from it. Bridges are numbered along the chain shown (N, C = ends). [ ]: non-standard residue; d: D form. The star is where a group is joined. hPhe(3,5-F2-4-CF3) = N[C@@H](CCc1cc(F)c(C(F)(F)F)c(F)c1)C(=O)O; hPhe(3-Cl-4-CF3) = N[C@@H](CCc1ccc(C(F)(F)F)c(Cl)c1)C(=O)O; NPrPhe(4-CF3) = CCCN[C@@H](Cc1ccc(C(F)(F)F)cc1)C(=O)O; NMeAbu(4,4,4-F3) = CN[C@@H](CC(F)(F)F)C(=O)O; NMeGly(cPent) = CN[C@H](C(=O)O)C1CCCC1; NMeD = CN[C@@H](CC(=O)O)C(=O)O; Ac4c(3-oxa) = NC1(C(=O)O)COC1; NMeL = CN[C@@H](CC(C)C)C(=O)O; NMeNva = CCC[C@H](NC)C(=O)O; Morpholide = C1CN(*)CCO1; NMeA = CN[C@@H](C)C(=O)O; Ac5c = NC1(C(=O)O)CCCC1; Aze = O=C(O)[C@@H]1CCN1; Sar = CNCC(=O)O

Assays:
HRAS wild-type protein = HRAS wild-type protein (Homo sapiens, UniProt P01112); assay: Binding to HRAS by surface plasmon resonance (SPR), KD and KD ratio to KRAS
Sequence of HRAS wild-type protein (P01112 whole entry): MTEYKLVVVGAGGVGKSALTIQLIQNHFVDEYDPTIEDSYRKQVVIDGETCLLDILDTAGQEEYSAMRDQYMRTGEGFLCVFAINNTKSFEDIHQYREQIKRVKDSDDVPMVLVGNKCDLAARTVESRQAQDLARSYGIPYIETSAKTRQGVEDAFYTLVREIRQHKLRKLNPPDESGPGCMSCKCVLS
How it was run: (§1)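 Biotinylated GDP-bound RAS was captured at about 100–300 RU. Running buffer: HBS pH 7.4, 10 mM MgCl2, 10 µM GDP, 1 mM DTT, 0.01% Tween 20, 4% DMSO.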

[1] = target: GDP-bound NRAS wild-type protein (Homo sapiens, UniProt P01111); assay: Binding to NRAS by surface plasmon resonance (SPR), KD and KD ratio to KRAS
Sequence of GDP-bound NRAS wild-type protein (P01111 whole entry): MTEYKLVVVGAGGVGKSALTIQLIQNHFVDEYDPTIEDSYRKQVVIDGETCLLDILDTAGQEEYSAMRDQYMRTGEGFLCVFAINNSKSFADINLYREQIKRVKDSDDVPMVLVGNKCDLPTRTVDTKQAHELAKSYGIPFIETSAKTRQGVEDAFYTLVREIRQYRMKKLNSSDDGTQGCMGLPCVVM
How it was run: as §1

[2] = tested on: human lung cancer strain NCI-H441; format: cell-based
How it was run: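 Step one: dispense the test compound in serial DMSO dilutions. Step three: add the reagent and measure […].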

[3] = ratio of the KD value with respect to HRAS wild-type protein to the KD value with respect to KRAS
[4] = ratio of the KD value with respect to GDP-bound NRAS wild-type protein to the KD value with respect to KRAS
[5] = ratio of KD for HRAS wild-type protein to KD for KRAS
[6] = ratio of KD for GDP-bound NRAS wild-type protein to KD for KRAS
[7] = ratio of KD value for HRAS wild-type protein to KD value for KRAS (SPR)
[8] = ratio of KD value for GDP-bound NRAS wild-type protein to KD value for KRAS (SPR)
[9] = NCI-H441 cells, 4 days, CellTiter-Glo, read-out: NCl-H441 IC50

Row | Structure (SMILES) | IC50 [2] [nM] | HRAS /KRAS (HRAS wild-type protein; [3]) | NRAS /KRAS [1, 4] | HRAS /KRAS (HRAS wild-type protein; [5]) | NRAS /KRAS [1, 6] | HRAS /KRAS (HRAS wild-type protein; [7]) | NRAS /KRAS [1, 8] | IC50 [2, 9] [nM]
1 | CCCN1C(=O)CN(C)C(=O)CN(C)C(=O)[C@H]([C@@H](C)CC)NC(=O)[C@H](CC(C)C)N(C)C(=O)C[C@@H](C(=O)N(C)C)N(C)C(=O)[C@H](C2CCCC2)N(C)C(=O)C2(COC2)NC(=O)[C@@H]2CCCN2C(=O)[C@H](CCc2cc(F)c(C(F)(F)F)c(F)c2)NC(=O)CN(C)C(=O)[C@@H]1Cc1ccc(C(F)(F)F)cc1 [PP0744] ([NMeL]I[Sar][Sar][NPrPhe(4-CF3)][Sar][hPhe(3,5-F2-4-CF3)]P[Ac4c(3-oxa)][NMeGly(cPent)][NMeD]-NMe2; lactam N-11) | 57 | B (a compound having 3 or more and less than 10 is denoted as B) | B (a compound having 3 or more and less than 10 is denoted as B) |  |  |  |  | 
2 | CC[C@H](C)[C@@H]1NC(=O)[C@@H]2CCC/C=C/c3ccc(cc3)C[C@@H](C(=O)N(C)CC(=O)N[C@@H](CCc3ccc(Cl)c(Cl)c3)C(=O)N3C[C@H](OC4CCCC4)C[C@H]3C(=O)NC3(CC(C)(C)C3)C(=O)N(C)[C@@H](C3CCCC3)C(=O)N(C)[C@H](C(=O)N3CCCC3)CC(=O)N2C)N2CC/C=C\C[C@@H](C2=O)N(C)C(=O)CN(C)C1=O [PP3054] | 38.4 |  |  | A (a compound having 10 or more and less than 20 is denoted as A) | A (a compound having 10 or more and less than 20 is denoted as A) |  |  | 
3 | CCC[C@H]1C(=O)N[C@@H]([C@@H](C)CC)C(=O)N(C)CC(=O)N(C)CC(=O)N(CCC)[C@@H](Cc2ccc(C(F)(F)F)cc2)C(=O)N(C)CC(=O)N[C@@H](CCc2ccc(C(F)(F)F)c(Cl)c2)C(=O)N2CCC[C@H]2C(=O)NC2(CCCC2)C(=O)N(C)[C@@H](C2CCCC2)C(=O)N(C)[C@H](C(=O)N2CCOCC2)CC(=O)N1C [PP0189] ([NMeNva]I[Sar][Sar][NPrPhe(4-CF3)][Sar][hPhe(3-Cl-4-CF3)]P[Ac5c][NMeGly(cPent)][NMeD]-Morpholide; lactam N-11) | 3 |  |  | C (A compound having a KD ratio of 0.1 or more and less than 3 is denoted as C) | B (a compound having 3 or more and less than 10 is denoted as B) |  |  | 
4 | CCO[C@@H]1C[C@H]2C(=O)NC3(CC(C)(C)C3)C(=O)N(C)[C@@H](C(CC)CC)C(=O)N(C)[C@H](C3CCC3)CC(=O)N(C)[C@@H](CC3CC3)C(=O)N[C@@H]([C@@H](C)CC)C(=O)N(C)CC(=O)N(C)[C@H]3C/C=C\CCN(C3=O)[C@@H](Cc3ccc(C(F)(F)F)cc3)C(=O)N(C)CC(=O)N[C@@H](CCc3cc(F)c(C(F)(F)F)c(F)c3)C(=O)N2C1 [PP1634] | 144 |  |  |  |  | A (a compound having 10 or more and less than 20 is denoted as A) | A (a compound having 10 or more and less than 20 is denoted as A) | 
5 | CCCOC[C@H]1C(=O)N[C@@H]([C@@H](C)CC)C(=O)N2CCC[C@H]2C(=O)N(C)[C@H]2C/C=C\CCN(C2=O)[C@@H](Cc2ccc(C)cc2)C(=O)N(C)CC(=O)N[C@@H](CCc2ccc(C(F)(F)F)c(OC)c2)C(=O)N2C[C@H](OCC)C[C@H]2C(=O)N(C)C2(CCC2)C(=O)N(C)[C@@H](C(CC)CC)C(=O)N(C)[C@H](C(=O)N(C)C)CC(=O)N1C [PP2331] | 11.8 | A (a compound having 10 or more and less than 20 is denoted as A) | AA (a compound having 20 or more is denoted as AA) |  |  |  |  | 
6 | CCC[C@H]1C(=O)N[C@@H]([C@@H](C)CC)C(=O)N(C)CC(=O)N(C)[C@H]2C/C=C\CCN(C2=O)[C@@H](Cc2ccc(C(F)(F)F)cc2)C(=O)N(C)CC(=O)N[C@@H](CCc2cc(F)c(C(F)(F)F)c(F)c2)C(=O)N2C[C@H](OCC)C[C@H]2C(=O)NC2(CC(C)(C)C2)C(=O)N(C)[C@@H](CC2CC2)C(=O)N(C)[C@H](C(=O)N(C)C)CC(=O)N1C [PP2807] | 28 |  |  | A (a compound having 10 or more and less than 20 is denoted as A) | AA (a compound having 20 or more is denoted as AA) |  |  | 
7 | CCC[C@H]1C(=O)N[C@@H]([C@@H](C)CC)C(=O)N(C)CC(=O)N(C)[C@H]2C/C=C\CCN(C2=O)[C@@H](Cc2ccc(C(F)(F)F)cc2)C(=O)N(C)CC(=O)N[C@@H](CCc2ccc(C3CC3)c(C)c2)C(=O)N2C[C@H](OCC)C[C@H]2C(=O)NC2(CC(C)(C)C2)C(=O)N(C)[C@@H](C2CCCC2)C(=O)N(C)[C@H](C(=O)N(C)C)CC(=O)N1C [PP2855] |  |  |  | A (a compound having 10 or more and less than 20 is denoted as A) | A (a compound having 10 or more and less than 20 is denoted as A) |  |  | 37.9
8 | CCCN1C(=O)[C@@H]2CCN2C(=O)[C@H](C)N(C)C(=O)[C@H]([C@@H](C)CC)NC(=O)[C@H](CC(F)(F)F)N(C)C(=O)C[C@@H](C(=O)N2CCOCC2)N(C)C(=O)[C@H](C2CCCC2)N(C)C(=O)C2(CCCC2)NC(=O)[C@@H]2CCCN2C(=O)[C@H](CCc2ccc(C(F)(F)F)c(Cl)c2)NC(=O)CN(C)C(=O)[C@@H]1Cc1ccc(C(F)(F)F)cc1 [PP0191] ([NMeAbu(4,4,4-F3)]I[NMeA][Aze][NPrPhe(4-CF3)][Sar][hPhe(3-Cl-4-CF3)]P[Ac5c][NMeGly(cPent)][NMeD]-Morpholide; lactam N-11) | 3.9 |  |  | B (a compound having 3 or more and less than 10 is denoted as B) | C (A compound having a KD ratio of 0.1 or more and less than 3 is denoted as C) |  |  | 
9 | CCC[C@H]1C(=O)N[C@@H]([C@@H](C)CC)C(=O)N(C)CC(=O)N(C)[C@H]2C/C=C\CCN(C2=O)[C@@H](Cc2ccc(C(F)(F)F)cc2)C(=O)N(C)CC(=O)N[C@@H](CCc2cc(C)c(C(F)F)c(C)c2)C(=O)N2C[C@H](OCC)C[C@H]2C(=O)NC2(CC(C)(C)C2)C(=O)N(C)[C@@H](C2CCCC2)C(=O)N(C)[C@H](C(=O)N(C)C)CC(=O)N1C [PP2857] |  |  |  | A (a compound having 10 or more and less than 20 is denoted as A) | A (a compound having 10 or more and less than 20 is denoted as A) |  |  | 61.6

Further lines, with some results ahead:

Row | IC50 [2] [nM] | Structure (SMILES) | HRAS /KRAS (HRAS wild-type protein; [3]) | NRAS /KRAS [1, 4] | HRAS /KRAS (HRAS wild-type protein; [5]) | NRAS /KRAS [1, 6] | HRAS /KRAS (HRAS wild-type protein; [7]) | NRAS /KRAS [1, 8] | IC50 [2, 9] [nM]
10 | 8.1 | CCCN(C)C(=O)[C@@H]1CC(=O)N(C)[C@@H](C)C(=O)N[C@@H]([C@@H](C)CC)C(=O)N(C)CC(=O)N(C)[C@H]2C/C=C\CCN(C2=O)[C@@H](Cc2ccc(C(F)(F)F)cc2)C(=O)N(C)CC(=O)N[C@@H](CCc2cc(F)c(C(F)(F)F)c(F)c2)C(=O)N2C[C@H](OCC)C[C@H]2C(=O)NC2(CCC2)C(=O)N(C)[C@@H](C2CCCC2)C(=O)N1C [PP1666] |  |  |  |  | A (a compound having 10 or more and less than 20 is denoted as A) | A (a compound having 10 or more and less than 20 is denoted as A) | 
11 | 5.5 | CCO[C@@H]1C[C@H]2C(=O)NC3(CCC3)C(=O)N(C)[C@@H](C3CCCC3)C(=O)N(C)[C@H](C(=O)N3CCOCC3)CC(=O)N(C)[C@@H](CC)C(=O)N[C@@H]([C@@H](C)CC)C(=O)N(C)CC(=O)N(C)[C@H]3CCCCN(C3=O)[C@@H](Cc3ccc(C(F)(F)F)cc3)C(=O)N(C)CC(=O)N[C@@H](CCc3cc(F)c(C(F)(F)F)c(F)c3)C(=O)N2C1 [PP0708] | B (a compound having 3 or more and less than 10 is denoted as B) | B (a compound having 3 or more and less than 10 is denoted as B) |  |  |  |  | 
12 | 52.5 | CCO[C@@H]1C[C@H]2C(=O)NC3(CCC3)C(=O)N(C)[C@@H](C3CCCC3)C(=O)N(C)[C@H](C(=O)N(C)C)CC(=O)N(C)[C@@H](Cc3cccnc3)C(=O)N[C@@H]([C@@H](C)CC)C(=O)N(C)CC(=O)N(C)[C@H]3CCCCCN(C3=O)[C@@H](Cc3ccc(C(F)(F)F)cc3)C(=O)N(C)CC(=O)N[C@@H](CCc3cc(F)c(C(F)(F)F)c(F)c3)C(=O)N2C1 [PP0673] | B (a compound having 3 or more and less than 10 is denoted as B) | B (a compound having 3 or more and less than 10 is denoted as B) |  |  |  |  | 
13 | 4.5 | CCO[C@@H]1C[C@H]2C(=O)NC3(CC(C)(C)C3)C(=O)N(C)[C@@H](C3CCCC3)C(=O)N(C)[C@H](CC)CC(=O)N(C)[C@@H](CC)C(=O)N[C@@H]([C@@H](C)CC)C(=O)N(C)CC(=O)N(C)[C@H]3C/C=C\CCN(C3=O)[C@@H](Cc3ccc(C(F)(F)F)cc3)C(=O)N(C)CC(=O)N[C@@H](CCc3cc(F)c(C(F)(F)F)c(F)c3)C(=O)N2C1 [PP1623] |  |  |  |  | A (a compound having 10 or more and less than 20 is denoted as A) | A (a compound having 10 or more and less than 20 is denoted as A) | 
14 | 22.5 | CCCN(C)C(=O)[C@@H]1CC(=O)N(C)[C@@H](CC(C)C)C(=O)N[C@@H]([C@@H](C)OC)C(=O)N(C)CC(=O)N(C)[C@H]2C/C=C\CCN(C2=O)[C@@H](Cc2ccc(C(F)(F)F)cc2)C(=O)N(C)CC(=O)N[C@@H](CCc2cc(F)c(C(F)(F)F)c(F)c2)C(=O)N2C[C@H](OCC)C[C@H]2C(=O)NC2(CC(C)(C)C2)C(=O)N(C)[C@@H](C2CCCC2)C(=O)N1C [PP1917] | A (a compound having 10 or more and less than 20 is denoted as A) | A (a compound having 10 or more and less than 20 is denoted as A) |  |  |  |  | 
15 | 40.2 | CCO[C@@H]1C[C@H]2C(=O)NC3(CCC3)C(=O)N(C)[C@@H](C3CCCC3)C(=O)N(C)[C@H](C(=O)N(C)C)CC(=O)N(C)[C@@H](CC)C(=O)N[C@@H]([C@@H](C)CC)C(=O)N(C)CC(=O)N(C)[C@H]3CCCCCN(C3=O)[C@@H](Cc3ccc(F)cc3OC)C(=O)N(C)CC(=O)N[C@@H](CCc3cc(F)c(C(F)(F)F)c(F)c3)C(=O)N2C1 [PP0914] |  |  | B (a compound having 3 or more and less than 10 is denoted as B) | B (a compound having 3 or more and less than 10 is denoted as B) |  |  | 
